# Data taken from patent publication US9371336B2, “Compounds for treating spinal muscular atrophy” (PTC Therapeutics Inc., priority 2012, dated 2016).
# Key:
# [1] = test system: SMN2 minigene mRNA (SMN2-A minigene construct); test: SMN2 minigene mRNA splicing RT-qPCR assay in cultured cells; type: cell-based, human; details: Homo sapiens, HEK293-H; HEK293H cells stably transfected with SMN2-A minigene, 24 hours, 7-point concentration data; concentration giving 1.5-fold SMN2 full length mRNA relative to vehicle-treated cells; read-out: EC1.5x for production of full length SMN2 mRNA
# In short: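 Full-length SMN2 minigene mRNA, measured by exon 7/luciferase-specific RT-qPCR that excludes endogenous SMN1/SMN2, was normalized to GAPDH and expressed relative to vehicle-treated cells via modified ΔΔCt. Stably transfected HEK293H cells received compound (7-point, 3.16-fold series, duplicates) for 24 h at 37 °C.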
# Smn protein = Smn protein assay (HTRF) in cultured cells (SMA patient fibroblasts GM03813); type: cell-based, human; details: 48 hours; for EC1.5x for Smn protein expression: SMA patient fibroblast cells (GM03813), HTRF, 7-point concentration data, concentration producing 1.5 times Smn protein vs DMSO vehicle control; for maximum fold (Fold) increase of Smn protein: SMA patient fibroblast cells, 7-point concentration curve, relative to vehicle control
# In short: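 SMA patient fibroblasts (GM03813) were treated 48 h at 37° C with a 7-point, 3.16-fold compound series in triplicate, then lysed in RIPA. Smn was read by HTRF (anti-SMN d2/kryptate, 665/620 nm ratio). ΔF versus blank was divided by vehicle ΔF to give fold Smn increase.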
SMILES,melting point [°C],EC (1.5-fold) [1] [µM],EC1.5x for Smn protein expression (Smn protein),maximum fold (Fold) increase of Smn protein (Smn protein)
"CCN1CCN(c2ccc3cc(-c4cn5cc(C)ccc5n4)c(=O)oc3n2)CC1 [Cpd 130, 7-(4-ethylpiperazin-1-yl)-3-(6-methylimidazo[1,2-a]pyridin-2-yl)-2H-pyrano[2,3-b]pyridin-2-one]",235 to 237,0.1 to 0.3,* (An EC1.5× for Smn protein expression between >3 μM and ≦10 μM is indicated by one star (*)),*** (a fold increase between >1.35 and ≦1.5 is indicated by three stars (***))
"CCN1CCN(c2ccc3cc(-c4cn5ccc(C)cc5n4)c(=O)oc3n2)CC1 [Cpd 131, 7-(4-ethylpiperazin-1-yl)-3-(7-methylimidazo[1,2-a]pyridin-2-yl)-2H-pyrano[2,3-b]pyridin-2-one]",258 to 261,0.1 to 0.3,,*** (a fold increase between >1.35 and ≦1.5 is indicated by three stars (***))
"CCN1CCN(c2ccc3cc(-c4cn5cccc(F)c5n4)c(=O)oc3n2)CC1 [Cpd 132, 7-(4-ethylpiperazin-1-yl)-3-(8-fluoroimidazo[1,2-a]pyridin-2-yl)-2H-pyrano[2,3-b]pyridin-2-one]",203 to 206,0.1 to 0.3,,** (a fold increase between >1.2 and ≦1.35 is indicated by two stars (**))
"CCN1CCN(c2ccc3cc(-c4cn5cccc(Cl)c5n4)c(=O)oc3n2)CC1 [Cpd 133, 3-(8-chloroimidazo[1,2-a]pyridin-2-yl)-7-(4-ethylpiperazin-1-yl)-2H-pyrano[2,3-b]pyridin-2-one]",218 to 221,≤ 0.1,*** (an EC1.5× between >0.3 μM and ≦1 μM is indicated by three stars (***)),*** (a fold increase between >1.35 and ≦1.5 is indicated by three stars (***))
"CCN1CCN(c2ccc3cc(-c4cn5cc(C)cc(F)c5n4)c(=O)oc3n2)CC1 [Cpd 134, 7-(4-ethylpiperazin-1-yl)-3-(8-fluoro-6-methylimidazo[1,2-a]pyridin-2-yl)-2H-pyrano[2,3-b]pyridin-2-one]",238 to 242,0.1 to 0.3,* (An EC1.5× for Smn protein expression between >3 μM and ≦10 μM is indicated by one star (*)),*** (a fold increase between >1.35 and ≦1.5 is indicated by three stars (***))
"CCN1CCN(c2ccc3cc(-c4cn5cc(C)cc(F)c5n4)c(=O)oc3n2)C[C@@H]1C [Cpd 137, 7-[(3S)-4-ethyl-3-methylpiperazin-1-yl]-3-(8-fluoro-6-methylimidazo[1,2-a]pyridin-2-yl)-2H-pyrano[2,3-b]pyridin-2-one]",239 to 243,≤ 0.1,*** (an EC1.5× between >0.3 μM and ≦1 μM is indicated by three stars (***)),**** (a fold increase between >1.5 and ≦1.65 is indicated by four stars (****))
"CCN1CCCN(c2ccc3cc(-c4cn5cc(C)cc(F)c5n4)c(=O)oc3n2)CC1 [Cpd 138, 7-(4-ethyl-1,4-diazepan-1-yl)-3-(8-fluoro-6-methylimidazo[1,2-a]pyridin-2-yl)-2H-pyrano[2,3-b]pyridin-2-one]",195 to 200,≤ 0.1,**** (an EC1.5×≦0.3 μM is indicated by four stars (****)),**** (a fold increase between >1.5 and ≦1.65 is indicated by four stars (****))

# Continued, in another order:
melting point [°C],SMILES,EC (1.5-fold) [1] [µM],EC1.5x for Smn protein expression (Smn protein),maximum fold (Fold) increase of Smn protein (Smn protein)
189 to 191,"CCN1CCCN(c2ccc3cc(-c4cn5cccc(F)c5n4)c(=O)oc3n2)CC1 [Cpd 139, 7-(4-ethyl-1,4-diazepan-1-yl)-3-(8-fluoroimidazo[1,2-a]pyridin-2-yl)-2H-pyrano[2,3-b]pyridin-2-one]",≤ 0.1,**** (an EC1.5×≦0.3 μM is indicated by four stars (****)),**** (a fold increase between >1.5 and ≦1.65 is indicated by four stars (****))
238 to 241,"CCN1CCN(c2ccc3cc(-c4cn5cc(C)nc(C)c5n4)c(=O)oc3n2)CC1 [Cpd 140, 3-(6,8-dimethylimidazo[1,2-a]pyrazin-2-yl)-7-(4-ethylpiperazin-1-yl)-2H-pyrano[2,3-b]pyridin-2-one]",0.3 to 1,** (an EC1.5× between >1 and ≦3 μM is indicated by two stars (**)),**** (a fold increase between >1.5 and ≦1.65 is indicated by four stars (****))
201 to 204,"CCN1CCCN(c2ccc3cc(-c4cn5cccc(Cl)c5n4)c(=O)oc3n2)CC1 [Cpd 141, 3-(8-chloroimidazo[1,2-a]pyridin-2-yl)-7-(4-ethyl-1,4-diazepan-1-yl)-2H-pyrano[2,3-b]pyridin-2-one]",≤ 0.1,**** (an EC1.5×≦0.3 μM is indicated by four stars (****)),**** (a fold increase between >1.5 and ≦1.65 is indicated by four stars (****))
217 to 221,"CCN1CCCN(c2ccc3cc(-c4cn5cc(C)ncc5n4)c(=O)oc3n2)CC1 [Cpd 142, 7-(4-ethyl-1,4-diazepan-1-yl)-3-(6-methylimidazo[1,2-a]pyrazin-2-yl)-2H-pyrano[2,3-b]pyridin-2-one]",≤ 0.1,*** (an EC1.5× between >0.3 μM and ≦1 μM is indicated by three stars (***)),**** (a fold increase between >1.5 and ≦1.65 is indicated by four stars (****))
252 to 256,"CCN1CCN(c2ccc3cc(-c4cn5cc(C)ncc5n4)c(=O)oc3n2)C[C@@H]1C [Cpd 143, 7-[(3S)-4-ethyl-3-methylpiperazin-1-yl]-3-(6methylimidazo-[1,2-a]pyrazin-2-yl)-2H-pyrano[2,3-b]pyridin-2-one]",≤ 0.1,*** (an EC1.5× between >0.3 μM and ≦1 μM is indicated by three stars (***)),**** (a fold increase between >1.5 and ≦1.65 is indicated by four stars (****))
184 to 190,"CCN1CCN(c2ccc3cc(-c4cn5cc(C)nc(C)c5n4)c(=O)oc3n2)C[C@@H]1C [Cpd 144, 3-(6,8-dimethylimidazo[1,2-a]pyrazin-2-yl)-7-[(3S)-4-ethyl-3-methylpiperazin-1-yl]-2H-pyrano[2,3-b]pyridin-2-one]",≤ 0.1,**** (an EC1.5×≦0.3 μM is indicated by four stars (****)),**** (a fold increase between >1.5 and ≦1.65 is indicated by four stars (****))
196 to 199,"CCN1CCN(c2ccc3cc(-c4cn5cccc(Cl)c5n4)c(=O)oc3n2)C[C@@H]1C [Cpd 145, 3-(8-chloroimidazo[1,2-a]pyridin-2-yl)-7-[(3S)-4-ethyl-3-methylpiperazin-1-yl]-2H-pyrano[2,3-b]pyridin-2-one]",≤ 0.1,**** (an EC1.5×≦0.3 μM is indicated by four stars (****)),**** (a fold increase between >1.5 and ≦1.65 is indicated by four stars (****))
